The source of these data is US10517889B2, “Modulators of SMAD7 expression” (Ionis Pharmaceuticals, Inc., priority 2017, dated 2019).

As usually defined, the % Inhibition is the relative decrease from the control value, in per cent. Lower therefore signals a response near the control. A word on the IC50: it is the concentration needed to halve the response being measured. A higher IC50 goes with weaker potency in that assay.

Strand notation (5' to 3'): a small letter for the sugar, then the base; units joined by * are phosphorothioate-linked, units joined directly phosphodiester-linked; [ ] holds rarer units or linkages, { } end groups; capitals alone tell only the bases. e = 2'-O-(2-methoxyethyl) (MOE); [5mC] = 5-methylcytosine; d = 2'-deoxy (DNA)

The subject of data set [1] is human SMAD7 mRNA. The data set is described as follows: Antisense inhibition of human SMAD7 mRNA expression in Hep3B cells by 5-10-5 MOE gapmers, single concentration, electroporation, RT-PCR (Example 1, Study 1 and 2). As to conditions: for % Inhibition: Study 2, electroporation with 15,000 nM antisense oligonucleotide. In kind it is cell-based. The method in brief: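 Hep3B cells (20,000/well) electroporated with 5-10-5 MOE gapmer at 5,000 nM or 15,000 nM for approximately 24 h. SMAD7 mRNA quantified by real-time PCR with primer probe set RTS5062 and normalized to RIBOGREEN total RNA. Values are percent inhibition relative to untreated controls.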

Data set [2] concerns human SMAD7 mRNA. Briefly: Dose-dependent inhibition of human SMAD7 mRNA expression in Hep3B cells (Example 3, Study 1 and 2). The data set is classed as cell-based. As to conditions: electroporation; for % inhibition of SMAD7 mRNA expression: approximately 16 hours; for IC50: Study 1 (312.5-20000 nM). The method in brief:
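Hep3B cells, 20,000 per well, electroporated with antisense oligonucleotide at 0.31, 1.25, 5.00 or 20.00 μM (first series) or 0.74, 2.22, 6.67 or 20.00 μM (second series). After ~16 h, SMAD7 mRNA measured by RT-qPCR (RTS5062), normalised to RIBOGREEN total RNA. Percent inhibition vs untreated cells; IC50 derived.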

Setting [3] is: 5-10-5 MOE gapmers targeting SEQ ID NO: 1 and 2.
Setting [4] is: 312.5 nM, Study 1, relative to untreated control cells.
Where [5] appears, read: electroporation, 15,000 nM antisense oligonucleotide (Study 2), 5-10-5 MOE gapmers targeting SEQ ID NO: 1 and 2.

Take “771734 (antisense e[5mC]*eT*e[5mC]*eA*eA*dA*d[5mC]*d[5mC]*dT*dT*dT*d[5mC]*dA*dG*dA*e[5mC]*e[5mC]*eA*eT*e[5mC]) [compound 771734]”: in the data set on human SMAD7 mRNA [1] (setting [3]), the “% Inhibition” value was found to be 64%. For the same substance, the “% inhibition of SMAD7 mRNA expression” value is on record as 0% with human SMAD7 mRNA [2] (setting [4]); 0% in the data set on human SMAD7 mRNA [2] (1250.0 nM, Study 1); 30% with human SMAD7 mRNA [2] (5000.0 nM, Study 1); 53% in the data set with human SMAD7 mRNA [2] (20000.0 nM, Study 1). Moreover, the IC50 with human SMAD7 mRNA [2] is > 20 µM.

For the substance “771737 (antisense eT*e[5mC]*eA*eA*eA*dT*dG*dA*dA*d[5mC]*d[5mC]*d[5mC]*dT*dG*dG*eT*eT*eA*eT*eA) [compound 771737]”, the “% inhibition of SMAD7 mRNA expression” value turned out to be 57% in the data set on human SMAD7 mRNA [1] (setting [5]); 0% in the data set with human SMAD7 mRNA [2] (setting [4]); 2% in the data set on human SMAD7 mRNA [2] (1250.0 nM, Study 1); 0% in the data set with human SMAD7 mRNA [2] (5000.0 nM, Study 1); 16% with human SMAD7 mRNA [2] (20000.0 nM, Study 1).

“771742 (antisense eA*eG*eA*e[5mC]*eA*dG*dA*dT*d[5mC]*dT*d[5mC]*dT*dG*dA*dA*eG*eT*e[5mC]*eA*eG) [compound 771742]”: the “% Inhibition” value with human SMAD7 mRNA [1] (setting [3]) came to 44%. The “% inhibition of SMAD7 mRNA expression” value in the data set on human SMAD7 mRNA [2] (setting [4]) was found to be 0%; with human SMAD7 mRNA [2] (1250.0 nM, Study 1) it was 0%; in the data set on human SMAD7 mRNA [2] (5000.0 nM, Study 1), 0%; with human SMAD7 mRNA [2] (20000.0 nM, Study 1), 23%. The IC50 in the data set with human SMAD7 mRNA [2] is > 20 µM.

On to “771762 (antisense eG*eT*e[5mC]*eA*e[5mC]*d[5mC]*dA*d[5mC]*d[5mC]*dG*dA*dT*dG*d[5mC]*dA*eT*e[5mC]*e[5mC]*eA*eA) [compound 771762]”, for which the “% inhibition of SMAD7 mRNA expression” value in the data set with human SMAD7 mRNA [1] (setting [5]) was 72%; in the data set with human SMAD7 mRNA [2] (setting [4]) it was 0%; with human SMAD7 mRNA [2] (1250.0 nM, Study 1), 0%; with human SMAD7 mRNA [2] (5000.0 nM, Study 1), 38%; in the data set on human SMAD7 mRNA [2] (20000.0 nM, Study 1) it was 67%.

With “771769 (antisense eG*eG*e[5mC]*eT*eG*dG*dG*dA*dA*dT*d[5mC]*dA*dG*dA*dA*e[5mC]*eT*eT*eG*eG) [compound 771769]”, the “% inhibition of SMAD7 mRNA expression” value in the data set with human SMAD7 mRNA [1] (setting [5]) stood at 71%; with human SMAD7 mRNA [2] (setting [4]), 10%; with human SMAD7 mRNA [2] (1250.0 nM, Study 1), 0%; in the data set with human SMAD7 mRNA [2] (5000.0 nM, Study 1) it was 3%; with human SMAD7 mRNA [2] (20000.0 nM, Study 1), 53%. Further, the concentration for half-maximal inhibition (IC50) in the data set with human SMAD7 mRNA [2] is > 20 µM.

For “771770 (antisense e[5mC]*eT*eG*eT*eT*dG*dG*d[5mC]*dA*dG*dT*dG*d[5mC]*dT*d[5mC]*e[5mC]*e[5mC]*eA*e[5mC]*e[5mC]) [compound 771770]”, the “% inhibition of SMAD7 mRNA expression” value was determined as 61% in the data set on human SMAD7 mRNA [1] (setting [5]); 0% in the data set on human SMAD7 mRNA [2] (setting [4]); 11% in the data set on human SMAD7 mRNA [2] (1250.0 nM, Study 1); 27% in the data set with human SMAD7 mRNA [2] (5000.0 nM, Study 1); 51% with human SMAD7 mRNA [2] (20000.0 nM, Study 1). For the same substance, in the data set with human SMAD7 mRNA [2], the IC50 was > 20 µM.

Take “771773 (antisense eT*e[5mC]*eT*eT*eT*dT*d[5mC]*dG*d[5mC]*dA*dT*d[5mC]*d[5mC]*dT*d[5mC]*eA*eG*eG*eA*eA) [compound 771773]”: the “% inhibition of SMAD7 mRNA expression” value in the data set on human SMAD7 mRNA [1] (electroporation, 15,000 nM, approximately 24 hours, relative to untreated control cells, gapmers targeting SEQ ID NO: 1 and 2) came out at 57%; with human SMAD7 mRNA [2] (setting [4]), 0%; in the data set on human SMAD7 mRNA [2] (1250.0 nM, Study 1), 0%; with human SMAD7 mRNA [2] (5000.0 nM, Study 1), 0%; in the data set with human SMAD7 mRNA [2] (20000.0 nM, Study 1), 42%. In the data set on human SMAD7 mRNA [2], the IC50 is > 20 µM.

“771776 (antisense e[5mC]*eT*e[5mC]*eA*eG*d[5mC]*dA*dA*dG*d[5mC]*dT*d[5mC]*dA*dG*dT*eT*e[5mC]*e[5mC]*eT*eG) [compound 771776]”: the “% Inhibition of SMAD7 mRNA” value with human SMAD7 mRNA [1] (electroporation with 15,000 nM antisense oligonucleotide (Study 2), 5-10-5 MOE gapmers targeting SEQ ID NO: 1 and 2) stood at 54%. Besides, the “% inhibition of SMAD7 mRNA expression” value in the data set with human SMAD7 mRNA [1] (setting [5]) was determined as 38%; in the data set on human SMAD7 mRNA [2] (setting [4]) it was 10%; in the data set with human SMAD7 mRNA [2] (1250.0 nM, Study 1), 13%; in the data set on human SMAD7 mRNA [2] (5000.0 nM, Study 1) it was 36%; with human SMAD7 mRNA [2] (20000.0 nM, Study 1), 67%. For the same substance, the half-inhibitory concentration (IC50) in the data set with human SMAD7 mRNA [2] came out at 9 µM.

Regarding “771777 (antisense e[5mC]*e[5mC]*e[5mC]*eT*e[5mC]*dA*dG*dT*d[5mC]*dT*d[5mC]*dA*dG*dA*dT*eA*eA*e[5mC]*eA*eG) [compound 771777]”, the “% inhibition of SMAD7 mRNA expression” value in the data set on human SMAD7 mRNA [1] (setting [5]) stood at 50%; in the data set on human SMAD7 mRNA [2] (setting [4]), 0%; in the data set with human SMAD7 mRNA [2] (1250.0 nM, Study 1), 0%; in the data set with human SMAD7 mRNA [2] (5000.0 nM, Study 1), 27%; in the data set on human SMAD7 mRNA [2] (20000.0 nM, Study 1) it was 50%. The substance also had an IC50 in the data set with human SMAD7 mRNA [2] of 8 µM.

Take “771778 (antisense eT*eG*eA*eG*eT*dA*dA*dA*d[5mC]*dA*dA*dT*dA*d[5mC]*d[5mC]*e[5mC]*eT*e[5mC]*eA*eG) [compound 771778]”: the “% inhibition of SMAD7 mRNA expression” value was 66% in the data set on human SMAD7 mRNA [1] (setting [5]); 48% in the data set on human SMAD7 mRNA [2] (setting [4]); 0% in the data set on human SMAD7 mRNA [2] (1250.0 nM, Study 1); 37% with human SMAD7 mRNA [2] (5000.0 nM, Study 1); 55% in the data set on human SMAD7 mRNA [2] (20000.0 nM, Study 1). Further, the half-maximal inhibitory concentration (IC50) in the data set on human SMAD7 mRNA [2] was > 20 µM.

Regarding “771782 (antisense eT*eA*eG*eG*eA*d[5mC]*dT*dG*dG*dA*dA*dG*dA*dG*d[5mC]*eT*eT*eT*eG*eG) [compound 771782]”, in the data set on human SMAD7 mRNA [1] (setting [3]), the “% Inhibition” value was determined as 50%. Besides, the “% inhibition of SMAD7 mRNA expression” value in the data set with human SMAD7 mRNA [2] (setting [4]) came out at 0%; with human SMAD7 mRNA [2] (1250.0 nM, Study 1), 9%; in the data set on human SMAD7 mRNA [2] (5000.0 nM, Study 1), 27%; with human SMAD7 mRNA [2] (20000.0 nM, Study 1), 38%. Also, the half-inhibitory concentration (IC50) with human SMAD7 mRNA [2] is > 20 µM.

With “771786 (antisense eA*eG*e[5mC]*eT*e[5mC]*dA*dA*dA*d[5mC]*dT*dT*dT*dG*dA*dA*eG*e[5mC]*e[5mC]*eT*eT) [compound 771786]”, the “% inhibition of SMAD7 mRNA expression” value in the data set with human SMAD7 mRNA [1] (setting [5]) amounted to 56%; in the data set on human SMAD7 mRNA [2] (setting [4]) it was 2%; in the data set with human SMAD7 mRNA [2] (1250.0 nM, Study 1) it was 0%; in the data set with human SMAD7 mRNA [2] (5000.0 nM, Study 1), 53%; in the data set with human SMAD7 mRNA [2] (20000.0 nM, Study 1), 40%. Besides, in the data set on human SMAD7 mRNA [2], the IC50 is > 20 µM.

Consider “771788 (antisense e[5mC]*e[5mC]*eA*eA*e[5mC]*dT*d[5mC]*dT*dG*dA*dA*d[5mC]*dG*dG*dA*eA*eA*eG*eA*eA) [compound 771788]”, for which the “% Inhibition” value in the data set on human SMAD7 mRNA [1] (setting [3]) is 30%. Besides, the “% inhibition of SMAD7 mRNA expression” value in the data set with human SMAD7 mRNA [2] (setting [4]) is given as 1%; in the data set with human SMAD7 mRNA [2] (1250.0 nM, Study 1) it was 0%; with human SMAD7 mRNA [2] (5000.0 nM, Study 1), 0%; in the data set with human SMAD7 mRNA [2] (20000.0 nM, Study 1) it was 0%. The IC50 in the data set with human SMAD7 mRNA [2] is > 20 µM.

On to “771793 (antisense eA*eA*eG*eT*e[5mC]*d[5mC]*d[5mC]*dT*dA*dA*d[5mC]*dG*dA*d[5mC]*d[5mC]*eA*eG*eG*e[5mC]*e[5mC]) [compound 771793]”, for which the “% inhibition of SMAD7 mRNA expression” value in the data set on human SMAD7 mRNA [1] (setting [5]) is listed as 58%; in the data set on human SMAD7 mRNA [2] (setting [4]), 16%; in the data set on human SMAD7 mRNA [2] (1250.0 nM, Study 1), 33%; in the data set with human SMAD7 mRNA [2] (5000.0 nM, Study 1) it was 38%; with human SMAD7 mRNA [2] (20000.0 nM, Study 1), 57%. The IC50 in the data set on human SMAD7 mRNA [2] came to 12 µM.

“771794 (antisense eG*eA*eA*eG*e[5mC]*dA*dA*dG*dT*d[5mC]*dA*d[5mC]*dT*dG*d[5mC]*e[5mC]*eT*eT*e[5mC]*eT) [compound 771794]”: the “% inhibition of SMAD7 mRNA expression” value came out at 68% in the data set on human SMAD7 mRNA [1] (setting [5]); 0% with human SMAD7 mRNA [2] (setting [4]); 0% in the data set on human SMAD7 mRNA [2] (1250.0 nM, Study 1); 27% in the data set on human SMAD7 mRNA [2] (5000.0 nM, Study 1); 41% in the data set with human SMAD7 mRNA [2] (20000.0 nM, Study 1). Besides, the concentration for half-maximal inhibition (IC50) in the data set with human SMAD7 mRNA [2] is > 20 µM.
